Where a SMILES comes first, the peptide text is derived from it.
How the values were obtained:
Conditions in all cases: pH 7
[1] = biological target: T1, Pancreatic alpha-amylase (Homo sapiens, UniProt P04746); assay: Inhibition Kinetics Assay
T1 sequence (P04746 whole entry): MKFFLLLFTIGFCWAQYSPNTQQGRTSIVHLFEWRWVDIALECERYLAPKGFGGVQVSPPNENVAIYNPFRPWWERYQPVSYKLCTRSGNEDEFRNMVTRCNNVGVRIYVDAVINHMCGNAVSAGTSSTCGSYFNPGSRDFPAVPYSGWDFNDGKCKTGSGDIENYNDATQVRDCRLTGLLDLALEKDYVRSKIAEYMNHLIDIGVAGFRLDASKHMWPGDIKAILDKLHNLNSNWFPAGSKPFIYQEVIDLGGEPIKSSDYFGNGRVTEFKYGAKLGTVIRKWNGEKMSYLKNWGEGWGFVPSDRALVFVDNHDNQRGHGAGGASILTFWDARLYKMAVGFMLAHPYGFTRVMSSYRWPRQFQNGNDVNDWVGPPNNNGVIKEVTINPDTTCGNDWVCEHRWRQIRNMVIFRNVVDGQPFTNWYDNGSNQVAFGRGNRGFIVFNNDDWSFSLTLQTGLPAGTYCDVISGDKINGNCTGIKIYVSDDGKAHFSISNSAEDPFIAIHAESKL
Procedure: The release of 2-chloro-4-nitrophenol resulting from the HPA-catalyzed hydrolysis of 2-chloro-4-nitrophenyl a-maltotrioside (CNPG3) was monitored at 400 nm. Reactions were run at 30 °C in 50 mM NaPi and 100 mM NaCl (pH 7.0). Reactions were monitored over 5 min to measure the initial reaction rate.

[2] = biological target: T2, Alpha-amylase 1A (Homo sapiens, UniProt P0DUB6); assay: Inhibition Assay (piHA-Dm)
T2 sequence (P0DUB6 whole entry): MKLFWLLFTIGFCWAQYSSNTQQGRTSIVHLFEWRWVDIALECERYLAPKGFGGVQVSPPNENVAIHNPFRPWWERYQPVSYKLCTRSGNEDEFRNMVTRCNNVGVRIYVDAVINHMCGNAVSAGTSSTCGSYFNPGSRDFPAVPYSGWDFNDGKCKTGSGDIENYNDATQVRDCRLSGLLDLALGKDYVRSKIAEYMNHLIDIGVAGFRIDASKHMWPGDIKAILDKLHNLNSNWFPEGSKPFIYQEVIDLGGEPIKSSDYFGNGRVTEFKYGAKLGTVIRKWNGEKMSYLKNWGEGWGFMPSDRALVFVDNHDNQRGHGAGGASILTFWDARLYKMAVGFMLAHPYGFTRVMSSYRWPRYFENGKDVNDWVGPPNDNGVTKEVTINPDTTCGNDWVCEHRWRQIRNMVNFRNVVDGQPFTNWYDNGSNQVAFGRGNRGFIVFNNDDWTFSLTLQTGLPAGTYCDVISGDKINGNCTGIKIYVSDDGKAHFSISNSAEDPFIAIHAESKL
Procedure: (§1) After kinetic analysis with HPA, piHA-Dm was tested as an inhibitor of ten additional enzymes. The conditions are listed as follows: Agrobacterium faecalis β-glucosidase (2.5 × 10^-4 mg/mL enzyme, 50 mM sodium phosphate pH 7, 4 mM PNP β-gal); Bos taurus β-galactosidase (6.9 × 10^-2 mg/mL enzyme, 50 mM sodium phosphate pH 7, 1 mM PNP β-gal); S. cerevisiae α-glucosidase (5 × 10^-3 mg/mL enzyme, 50 mM sodium phosphate pH 7, 1 mM α-glc); Human maltase-glucoamylase (8.1 × 10^-2 mg/mL enzyme, 50 mM sodium phosphate pH 7, 1 mM α-glc); Mouse maltase-glucoamylase (8.1 × 10^-2 mg/mL enzyme, 50 mM sodium phosphate pH 7, 1 mM α-glc); Butyrivibrio fibrisolvens α-amylase (1.7 × 10^-4 mg/mL enzyme, 50 mM sodium phosphate 100 mM NaCl pH 7, 1 mM CNPG3); Aspergillus oryzae α-amylase (1.9 × 10^-4 mg/mL enzyme, 50 mM sodium phosphate 100 mM NaCl pH 7, 1 mM CNPG3); Porcine pancreatic α-amylase (6.7 × 10^-3 mg/mL enzyme, 50 mM sodium phosphate 100 mM N

[3] = biological target: Maltase-glucoamylase (Homo sapiens, UniProt O43451); assay: Inhibition Assay (piHA-Dm)
Sequence of Maltase-glucoamylase (O43451 whole entry): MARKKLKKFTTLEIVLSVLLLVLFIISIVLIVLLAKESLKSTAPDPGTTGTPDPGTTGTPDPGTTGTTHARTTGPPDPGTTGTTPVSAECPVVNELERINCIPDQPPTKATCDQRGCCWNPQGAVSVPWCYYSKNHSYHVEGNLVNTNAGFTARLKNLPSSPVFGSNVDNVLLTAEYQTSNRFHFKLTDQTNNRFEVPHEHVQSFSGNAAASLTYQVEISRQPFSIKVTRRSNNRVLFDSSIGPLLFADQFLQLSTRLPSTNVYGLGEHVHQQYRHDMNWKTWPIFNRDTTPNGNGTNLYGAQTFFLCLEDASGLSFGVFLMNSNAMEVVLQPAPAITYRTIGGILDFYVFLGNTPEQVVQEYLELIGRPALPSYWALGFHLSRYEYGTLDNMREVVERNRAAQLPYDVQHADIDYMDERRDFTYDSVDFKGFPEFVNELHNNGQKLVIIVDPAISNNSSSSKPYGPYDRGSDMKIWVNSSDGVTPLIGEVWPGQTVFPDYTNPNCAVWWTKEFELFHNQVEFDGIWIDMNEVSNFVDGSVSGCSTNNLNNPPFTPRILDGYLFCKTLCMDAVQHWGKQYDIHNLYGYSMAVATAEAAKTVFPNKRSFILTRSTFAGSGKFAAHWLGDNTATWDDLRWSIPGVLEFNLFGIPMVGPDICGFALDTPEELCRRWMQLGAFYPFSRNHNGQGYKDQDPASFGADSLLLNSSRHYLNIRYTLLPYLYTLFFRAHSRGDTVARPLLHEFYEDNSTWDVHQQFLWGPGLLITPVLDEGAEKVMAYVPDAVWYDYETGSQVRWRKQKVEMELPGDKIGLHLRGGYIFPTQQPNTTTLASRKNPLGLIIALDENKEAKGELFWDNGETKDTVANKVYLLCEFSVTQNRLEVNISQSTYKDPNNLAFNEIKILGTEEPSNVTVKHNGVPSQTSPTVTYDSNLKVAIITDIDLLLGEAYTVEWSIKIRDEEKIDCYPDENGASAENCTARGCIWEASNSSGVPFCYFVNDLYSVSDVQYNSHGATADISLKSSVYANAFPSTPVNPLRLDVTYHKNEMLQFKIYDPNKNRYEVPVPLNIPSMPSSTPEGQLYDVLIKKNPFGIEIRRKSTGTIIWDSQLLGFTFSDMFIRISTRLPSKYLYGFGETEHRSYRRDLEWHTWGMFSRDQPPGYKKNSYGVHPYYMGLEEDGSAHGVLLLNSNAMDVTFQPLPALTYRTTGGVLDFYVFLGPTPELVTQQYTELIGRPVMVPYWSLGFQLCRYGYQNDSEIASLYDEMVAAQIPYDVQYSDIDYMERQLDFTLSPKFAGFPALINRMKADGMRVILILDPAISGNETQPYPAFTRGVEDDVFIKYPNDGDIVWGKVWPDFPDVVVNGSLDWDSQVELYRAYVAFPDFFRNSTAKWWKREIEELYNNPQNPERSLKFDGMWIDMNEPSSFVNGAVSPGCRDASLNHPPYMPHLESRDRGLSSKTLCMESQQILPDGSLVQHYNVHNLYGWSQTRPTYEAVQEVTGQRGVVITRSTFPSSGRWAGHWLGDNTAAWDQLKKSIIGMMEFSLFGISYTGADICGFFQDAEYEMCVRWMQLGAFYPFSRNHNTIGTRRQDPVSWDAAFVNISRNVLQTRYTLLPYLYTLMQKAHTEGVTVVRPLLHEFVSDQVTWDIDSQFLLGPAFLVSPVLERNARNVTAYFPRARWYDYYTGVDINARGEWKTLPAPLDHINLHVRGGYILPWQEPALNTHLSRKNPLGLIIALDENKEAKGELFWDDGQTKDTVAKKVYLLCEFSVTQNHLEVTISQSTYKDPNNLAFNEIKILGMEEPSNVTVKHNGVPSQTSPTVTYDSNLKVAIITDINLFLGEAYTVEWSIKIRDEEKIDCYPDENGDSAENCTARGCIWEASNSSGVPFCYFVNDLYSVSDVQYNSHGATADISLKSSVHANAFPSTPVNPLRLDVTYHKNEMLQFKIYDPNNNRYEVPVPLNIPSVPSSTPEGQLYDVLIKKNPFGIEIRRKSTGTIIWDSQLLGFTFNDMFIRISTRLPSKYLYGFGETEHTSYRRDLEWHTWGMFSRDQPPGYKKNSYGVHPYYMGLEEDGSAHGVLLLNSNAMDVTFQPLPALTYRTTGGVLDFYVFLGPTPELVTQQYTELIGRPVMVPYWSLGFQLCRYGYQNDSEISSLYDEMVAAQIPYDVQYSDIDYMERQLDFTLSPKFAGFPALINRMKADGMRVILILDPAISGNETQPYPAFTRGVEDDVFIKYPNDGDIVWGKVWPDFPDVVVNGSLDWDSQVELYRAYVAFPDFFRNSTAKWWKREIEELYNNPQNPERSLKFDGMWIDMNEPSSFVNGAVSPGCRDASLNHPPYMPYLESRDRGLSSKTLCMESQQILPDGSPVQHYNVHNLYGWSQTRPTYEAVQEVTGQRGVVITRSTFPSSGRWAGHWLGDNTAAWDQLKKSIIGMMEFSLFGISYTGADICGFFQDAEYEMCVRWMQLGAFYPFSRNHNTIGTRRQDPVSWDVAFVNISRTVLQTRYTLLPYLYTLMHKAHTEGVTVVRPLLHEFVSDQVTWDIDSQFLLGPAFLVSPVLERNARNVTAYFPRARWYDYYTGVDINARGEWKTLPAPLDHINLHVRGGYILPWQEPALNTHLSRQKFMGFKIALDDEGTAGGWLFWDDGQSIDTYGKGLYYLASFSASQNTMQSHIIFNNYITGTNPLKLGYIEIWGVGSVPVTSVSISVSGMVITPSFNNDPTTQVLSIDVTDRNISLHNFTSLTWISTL
Procedure: as §1

[4] = biological target: T3, Pancreatic alpha-amylase (Sus scrofa, UniProt P00690); assay: Inhibition Assay (piHA-Dm)
T3 sequence (P00690 whole entry): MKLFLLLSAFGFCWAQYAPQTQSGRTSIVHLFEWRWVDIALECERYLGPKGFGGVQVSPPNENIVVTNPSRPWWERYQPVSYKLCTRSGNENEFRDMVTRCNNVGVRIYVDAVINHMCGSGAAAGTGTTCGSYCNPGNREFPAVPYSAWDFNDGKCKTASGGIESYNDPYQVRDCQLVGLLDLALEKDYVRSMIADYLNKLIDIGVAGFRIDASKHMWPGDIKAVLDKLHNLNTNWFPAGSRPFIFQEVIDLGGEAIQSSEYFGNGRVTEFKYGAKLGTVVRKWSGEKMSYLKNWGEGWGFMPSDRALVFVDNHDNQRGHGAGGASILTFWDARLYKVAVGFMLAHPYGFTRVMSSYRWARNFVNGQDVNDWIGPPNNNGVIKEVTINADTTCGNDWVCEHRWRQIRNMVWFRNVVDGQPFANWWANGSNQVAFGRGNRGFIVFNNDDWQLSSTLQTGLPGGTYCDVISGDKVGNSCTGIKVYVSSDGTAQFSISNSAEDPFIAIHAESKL
Procedure: as §1

[5] = biological target: Soluble maltase-glucoamylase (Mus musculus, UniProt Q6XK23); assay: Inhibition Assay (piHA-Dm)
Sequence of Soluble maltase-glucoamylase (Q6XK23 whole entry): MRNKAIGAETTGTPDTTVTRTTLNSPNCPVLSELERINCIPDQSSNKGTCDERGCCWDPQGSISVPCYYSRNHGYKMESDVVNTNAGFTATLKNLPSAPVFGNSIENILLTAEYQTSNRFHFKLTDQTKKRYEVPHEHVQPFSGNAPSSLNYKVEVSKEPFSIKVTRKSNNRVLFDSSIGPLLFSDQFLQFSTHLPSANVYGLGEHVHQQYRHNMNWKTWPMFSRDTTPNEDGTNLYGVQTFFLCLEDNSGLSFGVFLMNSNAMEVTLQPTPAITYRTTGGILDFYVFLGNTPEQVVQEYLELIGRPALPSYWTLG
Procedure: as §1

Ki [1] [nM] | IC50 [2] [nM] | IC50 [3] [nM] | IC50 [4] [nM] | IC50 [5] [nM] | Structure (SMILES)
1 | – | – | – | – | CC[C@H](C)[C@H](NC(=O)[C@H](CCCNC(=N)N)NC(=O)[C@@H](NC(=O)[C@H](Cc1cnc[nH]1)NC(=O)[C@H](CCCNC(=N)N)NC(=O)[C@H](C)NC(=O)[C@H](Cc1c[nH]c2ccccc12)NC(=O)[C@H](CS)N1SCC(=O)N[C@@H](Cc2ccc(O)cc2)C(=O)N2CCC[C@H]2C(=O)N[C@@H](Cc2ccc(O)cc2)C(=O)N[C@@H](CO)C1=O)C(C)C)C(=O)N[C@@H](CCCNC(=N)N)C(=O)N[C@H](CCC(=O)O)C(=O)N[C@@H](CC(N)=O)C(N)=O [piHA-D1]
2.7 | – | – | – | – | CC(C)[C@H](NC(=O)[C@H](Cc1c[nH]c2ccccc12)NC(=O)[C@H](CS)N1SCC(=O)N[C@@H](Cc2ccc(O)cc2)C(=O)N2CCC[C@H]2C(=O)N[C@@H](Cc2ccc(O)cc2)C(=O)N[C@@H](CO)C1=O)C(=O)N[C@@H](CCCNC(=N)N)C(=O)N[C@@H](Cc1cnc[nH]1)C(=O)N[C@@H](CO)C(=O)N[C@@H](CC(=O)O)C(=O)N1CCC[C@H]1C(=O)N[C@@H](Cc1cnc[nH]1)C(=O)N[C@@H](CCCCN)C(=O)N[C@@H](Cc1ccccc1)C(N)=O [piHA-D3]
7 | 34 | – | – | – | CC(C)[C@H](NC(=O)[C@H](Cc1c[nH]c2ccccc12)NC(=O)[C@H](CS)N1SCC(=O)N[C@@H](Cc2ccc(O)cc2)C(=O)N2CCC[C@H]2C(=O)N[C@@H](Cc2ccc(O)cc2)C(=O)N[C@@H](CO)C1=O)C(=O)N[C@@H](CCCNC(=N)N)C(=O)N[C@@H](Cc1cnc[nH]1)C(N)=O [piHA-Dm]
– | – | 520 | 8.5 | 990 | CC(C)[C@H](NC(=O)[C@H](Cc1c[nH]c2ccccc12)NC(=O)[C@@H]1CSCC(=O)N[C@@H](Cc2ccc(O)cc2)C(=O)N2CCC[C@H]2C(=O)N[C@@H](Cc2ccc(O)cc2)C(=O)N[C@@H](CO)C(=O)N1)C(=O)N[C@@H](CCCNC(=N)N)C(=O)N[C@@H](Cc1cnc[nH]1)C(N)=O [piHA-Dm] (HELM PEPTIDE1{[O=C(C[*:3])[*:2]].Y.P.Y.S.C.W.V.R.H.[am]}$PEPTIDE1,PEPTIDE1,1:R3-6:R3$$$V2.0)
